Publication PMC10054553, “Development of the First ^18F-Labeled Radiohybrid-Based Minigastrin Derivative with High Target Affinity and Tumor Accumulation by Substitution of the Chelating Moiety” (Pharmaceutics, 2023)

Test: Lipophilicity (logD7.4), n-octanol/PBS pH 7.4
Assay type: physicochemical
Protocol: Cell-based experiments and determination of lipophilicity (logD7.4) were performed as previously published. A detailed description of the in vitro experiments is provided in the Supplementary Materials.
Cell Culture. CCK-2R-expressing rat pancreatic cancer cells AR42J (CLS GmbH, Eppelheim, Germany) were cultivated in monolayers in CELLSTAR® cell culture flasks acquired from Greiner Bio-One GmbH (Frickenhausen, Germany) at 37°C in a humidified atmosphere (5% CO2) using a HERAcell 150i-Incubator (Thermo Fisher Scientific Inc., Waltham, United States). The nutrient medium RPMI 1640 medium, supplemented with 5 mM L-Gln 5 mL non-essential amino acids (100×) and 10% FCS, was used. Furthermore, a Dulbecco’s PBS solution with 0.1% EDTA (v/v) was applied to detach the cells for cell passaging. The detached cells were counted using a Neubauer hemocytometer (Paul Marienfeld, Lauda-Königshofen, Germany). In addition, all operations under sterile conditions were accomplished using a MSC-Advantage safety workbench (Thermo Fisher Scientific Inc., Waltham, United States).
Determination of IC50. AR42J cells (2.0 × 10^5 cells/well) were seeded into 24-well plates 24 ± 2 h prior to testing using 1 mL of nutrient medium (RPMI 1640, 5 mM L-Gln, 5 mL non-essential amino acids (100×), 10% FCS). Cells were incubated at 37°C in a humidified atmosphere (5% CO2).
After the removal of the medium, each well was washed with 500 μL PBS. For the cell-based assay, 200 μL of the nutrient medium (+5% BSA), [ 177Lu]Lu-DOTA-PP-F11N (25 μL, 0.3 pmol) as a radiolabeled reference and 25 μL of the peptide of interest in increasing concentrations (10 −10 to 10−4 M) were added to the cells in triplicate. Thereafter, the assay was incubated for 3 h at 37°C and the supernatant was collected. The cells were washed with 300 μL PBS and the collected supernatant fractions were unified.
After lysis of the cells with NaOH (300 μL, 1 N) for 15 min, the respective wells were washed with NaOH (300 μ L, 1 N) and both fractions were unified. The radioactivity of both the supernatant and the lysed fractions were quantified using a γ-counter (PerkinElmer Inc., Waltham, United States). The obtained data were evaluated via the GraphPad PRISM software (GraphPad Software Inc., La Jolla, United States), which calculates the half-maximal inhibitory concentration (IC50) of the peptides.
Internalization Studies. For the determination of the internalization kinetics of the various peptides, AR42J cells (3.0 × 10^5 cells/well) were seeded into polylysine-coated 24-well plates, adding 1 mL of nutrient medium. Afterwards, the cells were incubated for 24 ± 2 h at 37°C in a humidified atmosphere […]
On the day of the experiment, the medium was removed, and each well was washed with nutrient medium (300 μL). Afterwards 200 μL of nutrient medium, 25 μL of the 177Lu-labeled peptide (0.3 pmol, n = 6) and either 25 μL of nutrient medium for internalization studies ( n = 3) or 25 μL of [natLu]Lu-DOTA-PP-F11N (10 μmol) for competition studies ( n = 3) were added. Thereafter, the assay was incubated for various time points (1, 2, 4 and 6 h) at 37°C in a humidified atmosphere (5% CO2). After incubation, the cells were put on ice for at least 1 min to stop internalization kinetics and the supernatant was collected. Then, the cells were washed with an ice-cold nutrient medium (300 μL) and both fractions were unified. […] The radioactivity of the supernatant, the acid wash and the lysed fractions were quantified using a γ-counter. […]

Structure (SMILES) | logD7.4 (n-octanol/PBS pH 7.4) | logD (pH 7.4, n-octanol/PBS pH 7.4, read-out: logD7.4)
CCCC[C@H](NC(=O)[C@H](Cc1c[nH]c2ccccc12)NC(=O)CNC(=O)[C@H](Cc1ccc(O)cc1)NC(=O)[C@H](C)NC(=O)CC[C@@H](NC(=O)CC[C@@H](NC(=O)CC[C@@H](NC(=O)CC[C@@H](NC(=O)CC[C@@H](NC(=O)CC[C@@H](NC(=O)CC[C@@H](NC(=O)CC[C@@H](NC(=O)[C@@H](CNC(=O)c1ccc([Si](F)(C(C)(C)C)C(C)(C)C)cc1)NC(=O)CN1CCN(CC(=O)O)CCN(CC(=O)O)CCN(CC(=O)O)CC1)C(=O)O)C(=O)O)C(=O)O)C(=O)O)C(=O)O)C(=O)O)C(=O)O)C(=O)O)C(=O)N[C@@H](CC(=O)O)C(=O)N[C@@H](Cc1ccccc1)C(N)=O [[^19F]F-[^177Lu]Lu-DOTA-rhCCK-18] [metal not drawn] | −2.69 ± 0.06 | –
CCCC[C@H](NC(=O)[C@H](Cc1c[nH]c2ccccc12)NC(=O)CNC(=O)[C@H](Cc1ccc(O)cc1)NC(=O)[C@H](C)NC(=O)CC[C@@H](NC(=O)CC[C@@H](NC(=O)CC[C@@H](NC(=O)CC[C@@H](NC(=O)CC[C@@H](NC(=O)CC[C@@H](NC(=O)[C@@H](CNC(=O)c1ccc([Si](F)(C(C)(C)C)C(C)(C)C)cc1)NC(=O)CN1CCN(CC(=O)O)CCN(CC(=O)O)CCN(CC(=O)O)CC1)C(=O)O)C(=O)O)C(=O)O)C(=O)O)C(=O)O)C(=O)O)C(=O)N[C@@H](CC(=O)O)C(=O)N[C@@H](Cc1ccccc1)C(N)=O [[^177Lu]Lu-DOTA-rhCCK-16, metal not drawn] | – | -2.7 ± 0.09
